Holding throughout (type): in vivo, C57/B6 mice
Assay [1] is described as follows: Body composition (fat mass, lean mass, % body fat, bone mineral density) by DEXA in sub-therapeutic antibiotic treated (STAT) mice. The conditions noted are these: at 6 to 9 weeks, sub-therapeutic dose in drinking water, vs control mice. The source says:
C57/B6 mice were obtained at weaning (21 days) from Jackson Laboratories (Bar Harbor, Me.). They were weighed and then distributed in cages so that the mean weights of the mice in each cage were equal. The mice were then allowed to adjust to the NYU animal facility. At day 23 of life, the antibiotic-exposure experiment began. Animals were allowed ad libitum access to food and water and maintained with a 12-hour light/dark cycle. The mice were fed standard laboratory chow (Purina Mills International Diet # 5001). These conditions were continued until the time of sacrifice.
Mice were given standard water (pH 6.8) or water containing the following antimicrobial agents (at sub-therapeutic levels) in groups of 5-10 mice per experimental condition.
Body composition (fat mass, lean mass, percent [%] body fat) was determined using dual energy X-ray absorptiometry (DEXA) with a Lunar PIXImus II mouse densitometer (PIXImus, Fitchburg, Wis.) at the time of sacrifice. Each mouse was scanned individually. Data collected from the scan included fat and lean body mass, percent body fat, and bone mineral density.
Since maximal growth of mice in these experiments was during the first 2 weeks after weaning, a group of mice were sacrificed at two weeks, and bone mineral density (BMD) and fat phenotypes assessed. […]

In assay [2] the test system is Bacteroidetes and Firmicutes in the cecal microbiota. Put plainly: Phylum-level analysis of cecal bacterial populations by 454 sequencing of 16S rRNA V3 region. The settings on record: cecal contents, Mann-Whitney U-test. Here is the method: Approximately 10 mg of fecal or cecal samples were suspended in a solution containing 500 μl of extraction buffer (200 mM Tris (pH 8.0), 200 mM NaCl, 20 mM EDTA), 210 μl of 20% SDS, 500 μl of a mixture of phenol:chloroform (pH 7.9, 24:24), and 500 μl of a slurry of 0.1 mm-diameter zirconia beads. Cells were lysed by mechanical disruption with a bead beater set on high for 2 min at room temperature, followed by extraction with phenol:chloroform (pH 7.9, 24:24), and precipitation with isopropanol. […]
Phylum-level analysis of bacterial populations in […] mice. […] Mouse cecal contents were analyzed by 454 pryosequencing (Roche). […] For this experiment, the sequencing run produced 555,233 barcoded sequences with an average read length of 188±2.5 base pairs, an average read/barcode of 5784±676, and a read quality of 35. […] Order-level sequence data were summated to the phylum level and analyzed. […]
In another analysis, the proportion of all of the Eubacteria detected that were represented by the Firmicutes was examined. As shown in FIGS. 13A-B, % body fat measured by densitometry of the control and STAT mice (A) correlates with the ratio of Firmicute/Eubacteria as determined at the family level by 454 sequencing (B). […]

Assay [3] deals with bacterial populations of cecal contents. Put plainly: RAPD-PCR characterization of the microbial population in cecal contents. The settings on record: DNA from cecal contents; primers 1254, OPL-02, OPL-12. How it is done:
(§1) Approximately 10 mg of fecal or cecal samples were suspended in a solution containing 500 μl of extraction buffer (200 mM Tris (pH 8.0), 200 mM NaCl, 20 mM EDTA), 210 μl of 20% SDS, 500 μl of a mixture of phenol:chloroform (pH 7.9, 24:24), and 500 μl of a slurry of 0.1 mm-diameter zirconia beads. Cells were lysed by mechanical disruption with a bead beater set on high for 2 min at room temperature, followed by extraction with phenol:chloroform (pH 7.9, 24:24), and precipitation with isopropanol. After the sample was suspended in 100 μl of TE buffer, the extraction products were further purified using a modified protocol from the ExtractMaster Fecal DNA extraction kit (Epicentre Technologies, Madison Wis.). Residual protein was precipitated using the Protein Precipitation reagent and inhibitors were removed through an Inhibitor Removal Resin spin column. The final product was suspended in 100 μl of TE buffer.
Characterization of the microbial population in the fecal samples was performed using random amplified polymorphic DNA PCR(RAPD-PCR). […] The gels were stained with ethidium bromide and imaging was analyzed using imaged. […]
The positive control (+) was DNA from P. acnes strain VPI 0389. […] The letters A, B, C over columns C10, P1, and P2, respectively, were analyzed be measuring luminescence (see FIGS. 9A-B). […]

Assay [4] has as its system total fecal eubacterial and fungal levels. Put plainly: Total microbial counts in fecal pellets by qPCR (16S rRNA, fungal ITS2). How it is done:
At approximately weekly intervals, a fresh fecal pellet was collected from each individual mouse and frozen at −80° C. until DNA could be extracted. At the time of sacrifice, a fecal pellet was collected, as well as the cecal contents.
as §1, with “Residual protein was precipitated using the Protein Precipitation reagent and inhibitors were removed through an Inhibitor Removal Resin spin column. The final product was suspended in 100 μl of TE buffer.” left out
Analysis of total microbial counts in STAT Mice. […] This possibility was addressed by examining total fecal eubacterial levels in penicillin-treated and control mice by a standardized quantitative PCR (qPCR) using primers […] […] Total fungal levels were determined by qPCR using primers directed to the conserved ITS2 region in the fungal rrn operon ITS1F […] […]

Assay [5] has as its system Butyryl CoA transferase (BCoAT)-encoding genes. Put plainly: Butyryl CoA transferase (BCoAT) gene qPCR on cecal specimens. The settings on record: cecal samples. How it is done:
as §1
To test the effect of colonic microbiota on butyrate metabolism, a PCR assay was performed to detect genes encoding an enzyme, Butyryl CoA transferase (BCoAT), regardless of the taxonomic origin of the gene. The following primers were used: BCoATscrF […] (SEQ ID NO: 11) and BCoATscrR […] (SEQ ID NO: 12). BCoAT plays a central role in butyrate metabolism, which is an important short-chain fatty acid (SCFA) in colonic metabolism and provides energy to colonocytes (FIG. 14). […]

Experimental findings from patent US9603876B2, “Compositions and methods for restoring gastrointestinal microbiota following antibiotic treatment” (New York University, priority 2008, dated 2017) are described below.

Consider `CN(C)[C@@H]1C(O)=C(C(N)=O)C(=O)[C@@]2(O)C(O)=C3C(=O)c4c(O)ccc(Cl)c4[C@@](C)(O)[C@H]3C[C@@H]12` [chlortetracycline, Chlortetracycline], for which, in assay [1], the “more fat mass than controls (normalized mean fat mass)” value was 8.1±3.4%.

Take `CN[C@H](CC(C)C)C(=O)N[C@H]1C(=O)N[C@@H](CC(N)=O)C(=O)N[C@H]2C(=O)N[C@H]3C(=O)N[C@H](C(=O)N[C@H](C(=O)O)c4cc(O)cc(O)c4-c4cc3ccc4O)[C@H](O)c3ccc(c(Cl)c3)Oc3cc2cc(c3O[C@@H]2O[C@H](CO)[C@@H](O)[C@H](O)[C@H]2O[C@H]2C[C@](C)(N)[C@H](O)[C@H](C)O2)Oc2ccc(cc2Cl)[C@H]1O` [vancomycin, Vancomycin]: the “Firmicutes and B/F ratio compared to the controls” value in assay [2] is reported as “statistically significant”. Moreover, in assay [3], the “RAPD-PCR products compared to control mice” value was “varying sets of bands”.

In the case of Penicillin, in assay [4], the “number of copies of bacterial or fungal rrn elements vs control” value was “no significant difference”. Besides, in assay [5], the “BCoAT densities compared to controls” value is reported as “increase”. The “RAPD-PCR products compared to control mice” value in assay [3] was “clear differences”. Besides, the “more fat mass than controls (normalized mean fat mass)” value in assay [1] amounted to 22.9±8.1%.
